Values after ≈ are worked out from the molar mass of the structure shown.
How the values were obtained:
Propionibacterium acnes [1] = conditions: literature values; cited from earlier work
Propionibacterium acnes [2] = assay: Growth inhibition of Propionibacterium acnes by viable cell counting; format: cell-based; conditions: 37° C.
Method: The macelignan compound prepared in Example <1-1> was dissolved in dimethylsulfoxide to concentrations of 0.002%, 0.001% and 0.0005%, respectively. 100 μl of Propionibacterium acnes diluted to 2×10^5 CFU/ml was added to test tubes containing the macelignan solutions and allowed to react at 37° C. for 2 hr, 4 hr, 8 hr, 12 hr, 16 hr, 20 hr, and 24 hr. Each sample was serially diluted 10-fold and subjected to the pour plate method. The plates were cultured in an incubator at 37° C. and measured for viable cell colonies of Propionibacterium acnes.

Propionibacterium acnes [3] = assay: Minimum inhibitory concentration (MIC), broth serial dilution; format: cell-based; conditions: Cutibacterium acnes; BHI broth, 37° C., at least 24 hours; read-out: Minimum inhibitory concentration against Propionibacterium acnes
Method: (§1) The macelignan compound prepared in Example <1-1> was dissolved in 0.5% methanol, and 1 ml of BHI (Brain Heart Infusion) broth was placed into each of test tubes. 1 ml of 2% macelignan solution was placed only into the first test tube and serially diluted 2-fold. Then, 100 μl of Propionibacterium acnes were added at 2×10^5 CFU/ml to each test tube and cultured at 37° C. for at least 24 hours. […] Using the same method, the minimum inhibitory concentrations against Staphylococcus aureus and Staphylococcus epidermis were also measured and the results are shown in Table 2.

Staphylococcus aureus = assay: as above; format: cell-based; conditions: same method, read-out: Minimum inhibitory concentration against Staphylococcus aureus
Method: as §1

Staphylococcus epidermis = assay: as above; format: cell-based; conditions: same method, read-out: Minimum inhibitory concentration against Staphylococcus epidermis
Method: as §1

acne-causing bacteria = assay: Thermal stability: antibacterial activity by well diffusion assay after thermal treatment; format: cell-based; conditions: for Diameter of clear zone on the plate containing macelignan: 0.1% in dimethylsulfoxide
Method: The macelignan compound prepared in Example <1-1> was dissolved in dimethylsulfoxide to a concentration of 0.1%. The sample was thermally treated for 30 minutes at different temperatures of 60° C., 70° C., 80° C., 90° C., 100° C., and 121° C. and measured for antibacterial activity by the well diffusion assay.

acne patients = assay: Clinical test on acne patients, oral administration; format: in vivo, human
Method: The macelignan isolated and purified in Example <1-1> was clinically tested for acne treatment. • 30 men and women in their mid-30s, who suffer from acne, were selected as test subjects. The macelignan was administered to the test subjects at 600 mg two times a day for 4 weeks.

[4] = oral 600 mg two times a day, 4 weeks

Molecule: O=C(OOC(=O)c1ccccc1)c1ccccc1 [benzoyl peroxide]
- MIC against Propionibacterium acnes (Propionibacterium acnes [1]): 500 to 1000 µg/mL

Molecule: COc1cc(C[C@H](C)[C@H](C)Cc2ccc3c(c2)OCO3)ccc1O [macelignan]
- time within which the bacteria were almost dead (Propionibacterium acnes [2]; macelignan 0.001% (10 μg/ml)): ≤ 8 h
- time within which the bacteria were almost dead (Propionibacterium acnes [2]; macelignan 0.002% (20 μg/ml)): ≤ 2 h
- MIC (Propionibacterium acnes [3]): 2 µg/mL (≈ 6.09 µM)
- MIC (Staphylococcus aureus): 125 µg/mL (≈ 381 µM)
- MIC (Staphylococcus epidermis): 64 µg/mL (≈ 195 µM)
- Diameter of clear zone on the plate containing macelignan (acne-causing bacteria; treated 30 minutes at 60° C.): 17 mm
- Diameter of clear zone on the plate containing macelignan (acne-causing bacteria; treated 30 minutes at 70° C.): 16 mm
- Diameter of clear zone on the plate containing macelignan (acne-causing bacteria; treated 30 minutes at 80° C.): 17 mm
- Diameter of clear zone on the plate containing macelignan (acne-causing bacteria; treated 30 minutes at 90° C.): 17 mm
- Diameter of clear zone on the plate containing macelignan (acne-causing bacteria; treated 30 minutes at 100° C.): 18 mm
- Diameter of clear zone on the plate containing macelignan (acne-causing bacteria; treated 30 minutes at 121° C.): 17 mm
- thermal stability (change of antibacterial activity after thermal treatment) (acne-causing bacteria; thermal treatment at 60° C.-121° C.): little or no reduction in antibacterial activity
- Comedos, mean number after 4 weeks of administration (acne patients; [4]): 7.94
- Nodules, mean number after 4 weeks of administration (acne patients; [4]): 0.24
- Papules, mean number after 4 weeks of administration (acne patients; [4]): 5.69
- Pustules, mean number after 4 weeks of administration (acne patients; [4]): 2.30
- number of lesions after 4 weeks compared to before administration (acne patients; oral 600 mg two times a day, 4 weeks, p-value<0.05): remarkably reduced
- Comedos, mean number before administration (acne patients; oral, before administration): 18.92
- Nodules, mean number before administration (acne patients; oral, before administration): 0.74
- Papules, mean number before administration (acne patients; oral, before administration): 14.47
- Pustules, mean number before administration (acne patients; oral, before administration): 5.92

Molecule: CC1=CCC(O)(C(C)C)CC1 (stereo not drawn) [terpinen-4-ol]
- MIC against Propionibacterium acnes (Propionibacterium acnes [1]): 300 to 500 µg/mL

Molecule: benzalkonium chloride
- MIC against Propionibacterium acnes (Propionibacterium acnes [1]): 200˜300 μg/ml

From US8642646B2, “Method and composition for treating acne using lignan compounds” (New Tree Industry Co., Ltd., priority 2004, dated 2014)
